Laboratory results as given in US20260001914A1, “MACROCYCLIC PEPTIDES TARGETING KRAS” (Merck Sharp & Dohme LLC, priority 2022, published 2026).
*1 amine or outer side, *2 acyl side, *3 side chain or, on linkers, in order; H or OH if unused. Where a SMILES comes first, the peptide text is derived from it. Bridges are numbered along the chain shown (N, C = ends). [ ]: non-standard residue; d: D form. NMeNva(5-imidazol-1-yl) = CN[C@@H](CCCn1ccnc1)C(=O)O; Ala(pyrimidin-5-yl) = N[C@@H](Cc1cncnc1)C(=O)O; X81 = Cc1ccc(C[C@H](N[*:1])C(=O)[*:2])c(F)n1; Ala(2-pyrazinyl) = N[C@@H](Cc1cnccn1)C(=O)O; X80 = Nc1nccn1CCC[C@H](N[*:1])C(=O)[*:2]; NMeAha = CN[C@@H](CCN=[N+]=[N-])C(=O)O; X2 = O=C([C@H](Cc1ccccc1F)O[*:1])[*:2]; X21 = O=C([C@@H]1C[C@H]1CN[*:1])[*:2]; Phe(2-F) = N[C@@H](Cc1ccccc1F)C(=O)O; NMe3Pal = CN[C@@H](Cc1cccnc1)C(=O)O; X1 = O=C(C12CC(CN[*:1])(C1)C2)[*:2]; NMeF = CN[C@@H](Cc1ccccc1)C(=O)O; PhLac = O=C(O)[C@@H](O)Cc1ccccc1; 3Pal = N[C@@H](Cc1cccnc1)C(=O)O; d3Pal = N[C@H](Cc1cccnc1)C(=O)O; Ahp(2) = CCCCC[C@H](N)C(=O)O; Cba = N[C@@H](CC1CCC1)C(=O)O; NMeAbu = CC[C@H](NC)C(=O)O; NMeS = CN[C@@H](CO)C(=O)O; αMeC = C[C@](N)(CS)C(=O)O; NMeA = CN[C@@H](C)C(=O)O; Nle = CCCC[C@H](N)C(=O)O

These molecules were tested against KRAS-G12D protein (Homo sapiens, UniProt P01116, G12D) (assay: SOS-mediated nucleotide exchange assay (BODIPY-GDP / Tb-streptavidin TR-FRET)).
Assay type: biochemical

KRAS-G12D protein, sequence (P01116 1-188 isoform P01116-2 G12D): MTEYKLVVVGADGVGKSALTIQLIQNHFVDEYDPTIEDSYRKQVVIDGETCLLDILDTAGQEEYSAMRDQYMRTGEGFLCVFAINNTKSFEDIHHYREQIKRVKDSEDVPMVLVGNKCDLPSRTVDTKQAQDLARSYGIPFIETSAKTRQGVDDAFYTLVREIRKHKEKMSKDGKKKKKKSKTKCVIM

SMILES | EC50 [nM]
CCCC[C@@H]1NC(=O)[C@H](Cc2cccnc2)NC(=O)[C@H](COC)N(C)C(=O)[C@H](Cc2ccccc2)OC(=O)C23CC(CNC(=O)[C@H](Cc4cccnc4)N(C)C(=O)[C@H](CCCC)NC(=O)[C@H](Cc4ccccc4F)NC1=O)(C2)C3 [compound 255, cyclo(FLac-nMeSMe-3Pal-Nle-Phe2F-Nle-NMe3Pal-amBCP)] (cyclo([3Pal][Nle][Phe(2-F)][Nle][NMe3Pal][X1][PhLac][NMeS](Me))) | 6410
CCCC[C@@H]1NC(=O)[C@H](Cc2ccc(C)nc2F)NC(=O)[C@H](C)N(C)C(=O)[C@H](Cc2ccccc2)OC(=O)C23CC(CNC(=O)[C@H](Cc4ccccc4)N(C)C(=O)[C@H](CCCC)NC(=O)[C@H](Cc4ccccc4F)NC1=O)(C2)C3 [compound 311, cyclo(FLac-NMeA-3Pal2F4Me-Nle-Phe2F-Nle-NMeF-amBCP)] (cyclo([NMeA][X81][Nle][Phe(2-F)][Nle][NMeF][X1][PhLac])) | 892
CCCC[C@@H]1NC(=O)[C@H](Cc2ccccc2F)NC(=O)[C@H](CC2CCC2)NC(=O)[C@@H](Cc2cccnc2)NC(=O)[C@H](CCCn2ccnc2N)NC(=O)[C@H](Cc2ccccc2)NC(=O)C23CC(CNC(=O)[C@H](Cc4cccnc4)N(C)C1=O)(C2)C3 [compound 110, cyclo(F-NH2IMNva-d3Pal-cBuA-Phe2F-Nle-NMe3Pal-amBCP)] (cyclo(F[X80][d3Pal][Cba][Phe(2-F)][Nle][NMe3Pal][X1])) | 1.14
CCCC[C@@H]1NC(=O)[C@H](Cc2cccnc2)NC(=O)[C@H](CCCn2ccnc2)N(C)C(=O)[C@H](Cc2ccccc2)OC(=O)C23CC(CNC(=O)[C@H](Cc4ccccc4)N(C)C(=O)[C@H](CCCC)NC(=O)[C@H](Cc4ccccc4F)NC1=O)(C2)C3 [compound 233, cyclo(FLac-NMeNvalmid-3Pal-Nle-Phe2F-Nle-NMeF-amBCP)] (cyclo([3Pal][Nle][Phe(2-F)][Nle][NMeF][X1][PhLac][NMeNva(5-imidazol-1-yl)])) | 28.9
CCCCC[C@@H]1NC(=O)[C@H](Cc2ccc(OC)cc2)NC(=O)[C@H](CC2CCC2)NC(=O)[C@H](Cc2cccnc2)NC(=O)[C@H](C)N(C)C(=O)[C@H](Cc2ccccc2)NC(=O)CSC[C@@](C)(C(N)=O)NC(=O)[C@H](Cc2ccccc2)N(C)C1=O [compound 158, cyclo(F-NMeA-3Pal-cBuA-TyrOMe-Ahp-NMeF-aMeCl-ClAc)] ({CH2CO}-F[NMeA][3Pal][Cba]Y(Me)[Ahp(2)][NMeF][αMeC]-NH2; thioether N-8) | 146
CCCC[C@@H]1NC(=O)[C@H](Cc2cnccn2)NC(=O)[C@H](C)N(C)C(=O)[C@H](Cc2ccccc2)OC(=O)C23CC(CNC(=O)[C@H](Cc4ccccc4)N(C)C(=O)[C@H](CCCC)NC(=O)[C@H](Cc4ccccc4F)NC1=O)(C2)C3 [compound 322, cyclo(FLac-NMeA-AlaPyrz-Nle-Phe2F-Nle-NMeF-amBCP)] (cyclo([NMeA][Ala(2-pyrazinyl)][Nle][Phe(2-F)][Nle][NMeF][X1][PhLac])) | 2310
CCCC[C@@H]1NC(=O)[C@H](Cc2cccnc2)NC(=O)[C@H](CC)N(C)C(=O)[C@H](Cc2ccccc2)OC(=O)C23CC(CNC(=O)[C@H](Cc4cccnc4)N(C)C(=O)[C@H](CCCC)NC(=O)[C@H](Cc4ccccc4F)NC1=O)(C2)C3 [compound 404, cyclo(FLac-NMeAbu-3Pal-Nle-Phe2F-Nle-NMe3Pal-amBCP)] (cyclo([3Pal][Nle][Phe(2-F)][Nle][NMe3Pal][X1][PhLac][NMeAbu])) | 29
CCCC[C@@H]1NC(=O)[C@H](Cc2cccnc2)NC(=O)[C@H](CCN=[N+]=[N-])N(C)C(=O)[C@H](Cc2ccccc2)OC(=O)C23CC(CNC(=O)[C@H](Cc4cccnc4)N(C)C(=O)[C@H](CCCC)NC(=O)[C@H](Cc4ccccc4F)OC1=O)(C2)C3 [compound 238, cyclo(FLac-NMeDabN3-3Pal-Nle-F2FLac-Nle-NMe3Pal-amBCP)] (cyclo([3Pal][Nle][X2][Nle][NMe3Pal][X1][PhLac][NMeAha])) | 5590
CCCC[C@@H]1NC(=O)[C@H](Cc2cccnc2)NC(=O)[C@H](CCCn2ccnc2)N(C)C(=O)[C@H](Cc2ccccc2)NC(=O)[C@@H]2C[C@H]2CNC(=O)[C@H](Cc2cccnc2)N(C)C(=O)[C@H](CCCC)NC(=O)[C@H](Cc2ccccc2F)NC1=O [compound 251, cyclo(F-NMeNvalmid-3Pal-Nle-Phe2F-Nle-NMe3Pal-tamcPr)] (cyclo(F[NMeNva(5-imidazol-1-yl)][3Pal][Nle][Phe(2-F)][Nle][NMe3Pal][X21])) | 272
CCCC[C@@H]1NC(=O)[C@H](Cc2cncnc2)NC(=O)[C@H](CCN=[N+]=[N-])N(C)C(=O)[C@H](Cc2ccccc2)OC(=O)C23CC(CNC(=O)[C@H](Cc4cccnc4)N(C)C(=O)[C@H](CCCC)NC(=O)[C@H](Cc4ccccc4F)NC1=O)(C2)C3 [compound 242, cyclo(FLac-NMeDabN3-PyrimAla-Nle-Phe2F-Nle-NMe3Pal-amBCP)] (cyclo([NMe3Pal][X1][PhLac][NMeAha][Ala(pyrimidin-5-yl)][Nle][Phe(2-F)][Nle])) | 80.9
